These results are taken from patent publication US8106092B2, “Treatment of solid cancers” (priority 2004, dated 2012).

Common to all, as to format: in vivo, C57BL/6 mice
For experiment [1], the system named is B16-OVA tumors. The experiment can be described thus: PEP005-mediated cure of primaries plus DC therapy, growth of secondary tumors, s.c. B16-OVA model. To be noted: Log rank p<0.001 (PEP005) and =0.002 (DC). The protocol:
(§1) FIGS. 13A to C are graphical representations showing synergistic effects between PEP005-mediated cure of primaries and DC therapy on the growth of secondary tumors and on CD8^+ T-cell induction. (A) On d−3 C57BL/6 mice where inoculated with 2×10^6 B16-OVA cells on the right flank (primary tumor) and 2×10^4 B16-OVA cells on the left flank (secondary tumor). On d0 and d1 the primary B16-OVA tumors, which has reach 30.4 mm^2+SD6 were cured with i.t. injections of 25 μg of PEP005 formulated in PEG400. On d4 and d11 mice received DC therapy using DC2.4 cells pulsed with SVYDFFVWL [SEQ ID NO:1], KVPRNQDWL [SEQ ID NO:4] and SIINFEKL [SEQ ID NO:2] peptides, and ovalbumin (n=12, PEP005+DC). […] Animal groups were established and treated as in (A) except that on d12 mice were sacrificed and splenocytes analyzed in an ex vivo ELISPOT assay for responses to SVYDFFVWL [SEQ ID NO:1], KVPRNQDWL [SEQ ID NO:4] and SIINFEKL [SEQ ID NO:2] […]
To determine whether the immunostimulatory activity of PEP005-mediated cure of primary tumors would synergize with DC therapy to reduce growth of secondaries, four groups of C57BL/6 mice were established using the s.c. B16-OVA model. […] The growth of secondary tumors was monitored over time.

The subject of experiment [2] is B16 tumors. Put plainly: PEP005-mediated cure of primaries plus DC therapy, growth of secondary tumors, B16 model. To be noted: DC p=0.009. On the procedure: FIGS. 13A to C are graphical representations showing synergistic effects between PEP005-mediated cure of primaries and DC therapy on the growth of secondary tumors and on CD8^+ T-cell induction. (A) On d−3 C57BL/6 mice where inoculated with 2×10^6 B16-OVA cells on the right flank (primary tumor) and 2×10^4 B16-OVA cells on the left flank (secondary tumor). On d0 and d1 the primary B16-OVA tumors, which has reach 30.4 mm^2+SD6 were cured with i.t. injections of 25 μg of PEP005 formulated in PEG400. On d4 and d11 mice received DC therapy using DC2.4 cells pulsed with SVYDFFVWL [SEQ ID NO:1], KVPRNQDWL [SEQ ID NO:4] and SIINFEKL [SEQ ID NO:2] peptides, and ovalbumin (n=12, PEP005+DC). […] A third group was inoculated with secondary tumors only and received the DC therapy (n=14, DC), and the control group was given only secondary tumors and received no treatment (n=18, Control). Animals were culled when the secondary tumors reached 100 mm^2. (B) The experiment in (A) was repeated in the B16 model (n=6 per group). On d−2 C57BL/6 mice were inoculated with 10^6 B16 cells on the right flank (primary tumor) and 5×10^4 cells on the left flank (secondary tumors). […] Animal groups were established and treated as in (A) except that on d12 mice were sacrificed and splenocytes analyzed in an ex vivo ELISPOT assay for responses to SVYDFFVWL [SEQ ID NO:1], KVPRNQDWL [SEQ ID NO:4] and SIINFEKL [SEQ ID NO:2] […]

The test system of experiment [3] is B16-OVA-specific CD8^+ T-cells. The experiment can be described thus: B16-OVA-specific CD8+ T-cell responses, ex vivo ELISPOT on d12. To be noted: d12 splenocytes, responses to SVYDFFVWL, KVPRNQDWL and SIINFEKL
The protocol: as §1
To determine whether the synergistic effect of PEP005 and DC therapies seen in […] correlated with anti-cancer CD8^+ T-cell induction, a group of animals were established and treated as described for FIG. 13A except the animals were killed on d12 and their splenocytes analyzed for B16-OVA-specific CD8^+ T-cells responses. […] In the absence of treatment no significant B16-OVA-specific CD8^+ T-cell responses were detected (FIG. 13C, Controls).

Experiment [4] relates to B16 tumors. Put plainly: B16-specific antibody responses by ELISA after PEP005 treatment of B16 tumors. The conditions noted are these: as early as d11; exceeding untreated animals with large tumor burdens, p=0.045 at 1/100 dilution. On the procedure:
FIG. 15 is a graphical representation showing antibody responses following PEP005 treatment of B16 tumors. B16 tumors growing on C57BL/6 mice were cured with PEP005 treatment after they had reached 30-60 mm^3, (one tumor per mouse) and B16-specific antibody titers were measured by standard ELISA on blood taken d11 post treatment initiation (n=6) (▪) or d135 post treatment initiation (n=5) (▴). Antibody titers for untreated animals whose tumors had reached 121.5±SD 20.1 (n=4) by d11 are also shown (X). Naïve mice (n=5) received no tumors (i).
Anti-tumor antibodies are known to have anti-cancer activity. […] B16 cells (10^6) were injected s.c. (1 tumor/mouse) into the flanks of female, 6-10 week-old mice and when tumors had reached ≈30-60 mm^3 they were treated with PEP005 as above. On d11 and 135 serum was taken and analyzed by ELISA for antibodies specific for B16. A group of B16 bearing animals which were not treated with PEP005 and a naïve group were also included. B16 cells were sonicated in carbonate buffer 9pH=9) and absorbed onto Immuno Maxisorp 96 well plates (Nunc) overnight and dried. The plates were blocked with 5% v/v FBS, 0.01% v/v Tween in PBS for 1 hour at 37° C. […]
On the technique in general: ELISA stands for enzyme-linked immunosorbent assay.

In the case of `C/C=C(/C)C(=O)O[C@H]1C(C)=C[C@]23C(=O)[C@@H](C=C(CO)[C@@H](O)[C@]12O)[C@H]1[C@@H](C[C@H]3C)C1(C)C` [PEP005, ingenol-3-angelate], the entries for the “growth of secondaries vs no treatment controls” value in experiment [1] and in experiment [2] were “significantly reduced the growth of secondaries” and “did not provide a significant delay of tumor growth”, respectively. For the same compound, the “B16-OVA-specific CD8+ T-cell responses” value in experiment [3] is on record as “about 120 spots/10^6 splenocytes”. The “B16-specific antibody responses (ELISA)” value in experiment [4] is on record as “clearly detectable antibody responses”.
